Laboratory results: ChEMBL document CHEMBL1146512, “Ketene acetal and spiroacetal constituents of the marine fungus Aigialus parvus BCC 5311” (J Nat Prod, 2004)
The source made the active and inactive calls.

Experiments:
BC1 = test: Cytotoxicity against human BC1 cells; format: functional, cell-based
Candida albicans = test: Antifungal activity against Candida albicans; format: functional, organism-based
Human alphaherpesvirus 1 = test: Antiviral activity against HSV1; format: functional, organism-based
[1] = test system: Mycobacterium tuberculosis; test: Antitubercular activity against Mycobacterium tuberculosis H37Ra; format: functional, organism-based
KB = test: Cytotoxicity against human KB cells; format: functional, cell-based
Plasmodium falciparum = test: Antimalarial activity against Plasmodium falciparum K1; format: functional, organism-based

Measured: Activity

CCCCCCC[C@@H]1OC2=C(C(=O)[C@H](C)O2)[C@H](O)[C@@]1(C)O
inactive: all assays above

COc1cc(O)c2c(c1)[C@@H]([C@H]1C[C@H](O)[C@H](O)[C@@]3(C=CC[C@H](C)O3)O1)OC2=O
inactive: all assays above
